Results as given in patent publication US8680339B2, “Herbicides” (Syngenta Limited, priority 2009, dated 2014).

Assays:
Type in all cases: in vivo
Avena fatua (AVEFA) [1] = experiment: Post-emergence herbicidal activity, glasshouse pot test; settings: Avena fatua, 312 h, rate 250 g/ha, evaluated after 13 days, 100=total damage to plant, 0=no damage to plant
Experimental: (§1) Seeds of a variety of test species were sown in standard soil in pots. After cultivation for one day (pre-emergence) or after 8 days cultivation (post-emergence) under controlled conditions in a glasshouse (at 24/16° C., day/night; 14 hours light; 65% humidity), the plants were sprayed with an aqueous spray solution derived from the formulation of the technical active ingredient in acetone/water (50:50) solution containing 0.5% Tween 20 (polyoxyethelyene sorbitan monolaurate, CAS RN 9005-64-5). The test plants were then grown in a glasshouse under controlled conditions in a glasshouse (at 24/16° C., day/night; 14 hours light; 65% humidity) and watered twice daily. After 13 days for pre and post-emergence, the test was evaluated (100=total damage to plant; 0=no damage to plant). Test Plants: Lolium perenne (LOLPE), Alopecurus myosuroides (ALOMY), Echinochloa crus-galli (ECHCG), and Avena fatua (AVEFA). Post-Emergence Activity

[2] = system: Alopecurus myosuroides (ALOMY); experiment: as above; settings: Alopecurus myosuroides, 312 h, rate 250 g/ha, evaluated after 13 days, 100=total damage to plant, 0=no damage to plant
Experimental: as §1

[3] = system: Echinochloa crus-galli (ECHCG); experiment: as above; settings: Echinochloa crus-galli, 312 h, rate 250 g/ha, evaluated after 13 days, 100=total damage to plant, 0=no damage to plant
Experimental: as §1

Lolium perenne (LOLPE) [4] = experiment: as above; settings: Lolium perenne, 312 h, rate 250 g/ha, evaluated after 13 days, 100=total damage to plant, 0=no damage to plant
Experimental: as §1

Avena fatua (AVEFA) [5] = experiment: Pre-emergence herbicidal activity, glasshouse pot test; settings: Avena fatua, 312 h, rate 250 g/ha, evaluated after 13 days, 100=total damage to plant, 0=no damage to plant
Experimental: as §1, with “Pre-Emergence” for “Post-Emergence”

[6] = system: Alopecurus myosuroides (ALOMY); experiment: as above; settings: Alopecurus myosuroides, 312 h, rate 250 g/ha, evaluated after 13 days, 100=total damage to plant, 0=no damage to plant
Experimental: as §1, with “Pre-Emergence” for “Post-Emergence”

[7] = system: Echinochloa crus-galli (ECHCG); experiment: as above; settings: Echinochloa crus-galli, 312 h, rate 250 g/ha, evaluated after 13 days, 100=total damage to plant, 0=no damage to plant
Experimental: as §1, with “Pre-Emergence” for “Post-Emergence”

Lolium perenne (LOLPE) [8] = experiment: as above; settings: Lolium perenne, 312 h, rate 250 g/ha, evaluated after 13 days, 100=total damage to plant, 0=no damage to plant
Experimental: as §1, with “Pre-Emergence” for “Post-Emergence”

SMILES | pest or weed control at 250 g/ha (Avena fatua (AVEFA) [1]) [%] | pest or weed control at 250 g/ha [2] [%] | pest or weed control at 250 g/ha [3] [%] | pest or weed control at 250 g/ha (Lolium perenne (LOLPE) [4]) [%] | pest or weed control at 250 g/ha (Avena fatua (AVEFA) [5]) [%] | pest or weed control at 250 g/ha [6] [%] | pest or weed control at 250 g/ha [7] [%] | pest or weed control at 250 g/ha (Lolium perenne (LOLPE) [8]) [%]
Cc1cc(Oc2cc(F)ccc2F)cc(C)c1C1=C(O)[C@H]2[C@@H](C1=O)[C@@H]1CC[C@H]2O1 [Compound A-9] | 40 | 60 | 90 | 60 | 0 | 20 | 50 | 60
Cc1cc(Oc2ccccc2Cl)cc(C)c1C1=C(O)[C@H]2[C@@H](C1=O)[C@@H]1CC[C@H]2O1 [Compound A-10] | 0 | 10 | 40 | 30 | 0 | 10 | 10 | 20
Cc1cc(Oc2ccc(Br)cc2)cc(C)c1C1=C(O)[C@H]2[C@@H](C1=O)[C@@H]1CC[C@H]2O1 [Compound A-11] | 90 | 90 | 100 | 90 | 90 | 90 | 70 | 100
Cc1cc(Oc2ccc(Br)cc2Cl)cc(C)c1C1=C(O)[C@H]2[C@@H](C1=O)[C@@H]1CC[C@H]2O1 [Compound A-12] | 70 | 80 | 100 | 70 | 10 | 40 | 60 | 70
Cc1cc(Br)ccc1Oc1cc(C)c(C2=C(O)[C@H]3[C@@H](C2=O)[C@@H]2CC[C@H]3O2)c(C)c1 [Compound A-13] | 30 | 80 | 50 | 60 | 0 | 60 | 70 | 60
Cc1cc(Oc2cccc(Cl)c2)cc(C)c1C1=C(O)[C@H]2[C@@H](C1=O)[C@@H]1CC[C@H]2O1 [Compound A-14] | 30 | 70 | 80 | 70 | 0 | 40 | 80 | 70
Cc1cc(Oc2ccc(F)cc2)cc(C)c1C1=C(O)[C@H]2[C@@H](C1=O)[C@@H]1CC[C@H]2O1 [Compound A-15] | 90 | 90 | 100 | 90 | 70 | 60 | 70 | 90
Cc1cc(Oc2cnc3cc(Cl)ccc3n2)cc(C)c1C1=C(O)[C@H]2[C@H]3CC[C@H](C3)[C@H]2C1=O [Compound A-16] | 0 | 30 | 60 | 0 | 0 | 0 | 10 | 0
